Measured values reported in patent publication US20250034201A1, “PRODRUGS OF GANAXOLONE” (priority 2022, published 2025).
Values after ≈ are worked out from the molar mass of the structure shown. Like-named read-outs stand apart in the source and are kept apart here.

Experiments:
[1] = Stability in simulated gastric fluid (SGF); format: in vitro ADME
Description: (§1) The stability of exemplary compounds in simulated gastric fluid (SGF) and simulated intestinal fluid (SIF) was tested according to the following protocol.

[2] = Stability in simulated intestinal fluid (SIF); format: in vitro ADME
Description: as §1

[3] = Rat liver microsomal stability; format: in vitro ADME
Description: (§2) For several compounds only human liver microsomal stability was tested. […] The microsomal assays were carried out with and without the addition of NADPH at a final concentration of 1 mM. For negative control samples, NADPH reagent was not added. […] Note that compounds undergo only Phase I metabolism in liver microsomes.
(§3) CLint=the intrinsic hepatic clearance (uL/min/mg), where CLint is equal to 0.693/(t1/2×Cmp)

in vitro [4] = format: in vitro ADME, human
Description: as §2

[5] = Dog liver microsomal stability; format: in vitro ADME
Description: as §2, §3
(§4) Certain compounds were also tested in mice and dog liver microsome assays according to the protocol outlined above. […].

in vitro [6] = test: in vitro
Dog plasma stability = format: in vitro ADME
Description: (§5) For each test compound, samples at a final concentration of 2 μg/mL were prepared in blank plasma of selected species. All samples were incubated at 37° C. on a 150-RPM orbital shaker, and an aliquot was removed at pre-determined time points (0, 15, 30, 60, and 120 minutes). Samples were precipitated with three volumes of acetonitrile containing propranolol as internal standard, and centrifuged for 10 min at 2000 g before LC/MS/MS analysis of the supernatant solutions.

[7] = Pharmacokinetic study with Compound 224 (IV 2 mg/kg, PO 10 mg/kg); conditions: male, beagle, dog, plasma, analyte Compound 224, fasted male beagle dogs, mean
Description: Analysis time points for the IV arm were 0.083, 0.25, 0.5, 1, 2, 4, 8, 12, 24, 36 and 48 hours post dose and analysis time points for the PO arm were 0.25, 0.5, 1, 2, 4, 8, 12, 24, 36 and 48 hours post dose.

[8] = Measured solubility in buffer, LC-MS/MS; format: physicochemical; conditions: aqueous buffer, thermodynamic from solid
Description: […] The mixture was vortexed and a magnetic stirring bar was subsequently added to the vial. The vial was placed on a magnetic stirrer with constant stirring for 16-24 hours at room temperature. The pH of the top layer solution was measured. Subsequently, 200 μL of the top layer solution was placed in a 1.5 mL microcentrifuge tube and centrifuged at 18,000 g for 10 min at room temperature. A 10 μL aliquot of supernatant was added to 990 μL of methanol:water (1/:1, v/v) and vortexed. Then, one volume of acetonitrile containing internal standard was added to one volume of the above 100-fold diluted solution and the resulting solution was vortexed and placed in 96-well plate for LC-MS/MS analysis. […] LC-MS-MS analysis was performed utilizing multiple reaction monitoring for detection of characteristic ions for each test compound, additional related analytes and internal standard.

[9] = Mouse liver microsomal stability; format: in vitro ADME
Description: as §2, §3, §4

Mouse plasma stability = format: in vitro ADME; conditions: 2 μg/mL, 37° C.
Description: as §5

[10] = Pharmacokinetic study with Compound 111 (IV 5 mg/kg, PO 25 mg/kg); format: in vivo; conditions: analyte Compound 111, fasted male beagle dogs, mean; for AUC(0-t): read-out: Compound 111 PK AUClast; for MRT inf: read-out: Compound 111 PK MRTInf; for half-life: read-out: Compound 111 PK t1/2 (converted); for Vd: male, beagle, iv, 5 mg/kg
Description: […]; n=3) and oral (PO) administration (25 mg/kg; n=3) in fasted male beagle dogs.

[11] = dog, plasma, IV 5 mg/kg Compound 111
[12] = dog, plasma, oral 25 mg/kg Compound 111

CC(=O)[C@H]1CC[C@H]2[C@@H]3CC[C@H]4C[C@](C)(OC(=O)COC(=O)C(C)(C)O)CC[C@]4(C)[C@H]3CC[C@]12C [Compound 224]
SGF (% remain, 60 min) ([1]; simulated gi fluid, 1 h, pH 1.2): 88% | half-life ([1]; simulated gi fluid, pH 1.2): 6.08 h | SIF (% remain, 60 min) ([2]; simulated gi fluid, 1 h, pH 6.8): 60% | half-life ([2]; simulated gi fluid, pH 6.8): 1.63 h | Comments: production of GNX (ganaxolone) in rat liver microsomes ([3]; rat liver microsomes): In rat no GNX produced; | half-life ([3]; rat, microsomes): 0.163 h | microsomal CLint ([3]; rat, microsomes): 142 µL/min/mg | Rat Liver Microsomal Stability no NADPH, % remain 1 h ([3]; rat, microsomes): 1.4% | half-life (in vitro [4]; human, microsomes): 0.0278 h | microsomal CLint (in vitro [4]; human, microsomes): 828 µL/min/mg | Human Liver Microsomal Stability no NADPH, % remain 1 h (in vitro [4]; human, microsomes): 0.4% | half-life ([5]; dog, microsomes): 0.118 h | microsomal CLint ([5]; dog, microsomes): 196 µL/min/mg | Dog Liver Microsomal Stability no NADPH, % remain 1 h ([5]; dog, microsomes): 0.6% | Human plasma t90 (in vitro [6]; human): 6.5 min | half-life (in vitro [6]; human, plasma): 0.717 h | Rat plasma t90 (in vitro [6]; rat): 2.16 min | Observations: stability / GNX production in rat plasma (in vitro [6]; rat, plasma): GNX produced in rat | half-life (in vitro [6]; rat, plasma): 0.24 h | Dog plasma t90 (Dog plasma stability; dog): 126 min | half-life (Dog plasma stability; dog plasma): 14 h | Vd ([7]; Compound 224 PK Vss (L/kg)): 5.92 L/kg | Vd ([7]; Compound 224 PK Vz (L/kg)): 16.1 L/kg

CC(=O)[C@H]1CC[C@H]2[C@@H]3CC[C@H]4C[C@](C)(OC(=O)CN)CC[C@]4(C)[C@H]3CC[C@]12C [Compound 111]
solubility ([8]; pH 7.4, 50 mM phosphate buffer, 16-24 hours, room temperature, read-out: Solubility pH 7.4): 29.1 µg/mL (≈ 74.7 µM) | solubility ([8]; buffer, pH 2.0, room temperature, read-out: Solubility pH 2.0): 1520 µg/mL (≈ 3900 µM) | SGF (% remain, 60 min) ([1]; SGF with pepsin pH 1.2, 37° C., 60 min): 95% | half-life ([1]; simulated gi fluid, SGF with pepsin pH 1.2, 37° C., 2 μg/mL, read-out: SGF t1/2): 12.4 h | SIF (% remain, 60 min) ([2]; SIF with pancreatin pH 6.8, 37° C., 60 min): 79.0% | half-life ([2]; simulated gi fluid, SIF with pancreatin pH 6.8, 37° C., 2 μg/mL, read-out: SIF t1/2): 4.27 h | Comments: production of GNX (ganaxolone) in rat liver microsomes ([3]; rat liver microsomes): In rat no GNX produced; | half-life ([3]; rat liver microsomes 0.5 mg/mL, with NADPH, compound 0.5 μM, 37° C., read-out: Rat Liver Microsomal Stability t1/2): 5.58 h | microsomal CLint ([3]; rat liver microsomes 0.5 mg/mL, with NADPH, compound 0.5 μM, read-out: Rat Liver Microsomal Stability CLint (uL/min/mg liver)): 4.13 µL/min/mg | Rat Liver Microsomal Stability no NADPH, % remain 1 h ([3]; rat liver microsomes, no NADPH, compound 0.5 μM): 99.7% | half-life (in vitro [4]; human liver microsomes 0.5 mg/mL, with NADPH, compound 0.5 μM, 37° C., read-out: Human Liver Microsomal Stability t1/2): 3.17 h | microsomal CLint (in vitro [4]; human liver microsomes 0.5 mg/mL, with NADPH, compound 0.5 μM, read-out: Human Liver Microsomal Stability CLint (uL/min/mg liver) (converted)): 7.28 µL/min/mg | Human Liver Microsomal Stability no NADPH, % remain 1 h (in vitro [4]; human liver microsomes, no NADPH, compound 0.5 μM): 82.6% | microsomal CLint ([9]; mouse liver microsomes 0.5 mg/mL, compound 0.5 μM, read-out: Mouse Liver Microsomal Stability CLint (uL/min/mg liver)): 11.8 µL/min/mg | half-life ([9]; mouse liver microsomes 0.5 mg/mL, compound 0.5 μM, read-out: Mouse Liver Microsomal Stability t1/2): 1.97 h | Mouse Liver Microsomal Stability no NADPH, % remain 1 h ([9]; mouse liver microsomes, no NADPH, 1 h): 92.7% | microsomal CLint ([5]; dog liver microsomes 0.5 mg/mL, compound 0.5 μM, read-out: Dog Liver Microsomal Stability CLint (uL/min/mg liver)): 4.95 µL/min/mg | half-life ([5]; dog liver microsomes 0.5 mg/mL, compound 0.5 μM, read-out: Dog Liver Microsomal Stability t1/2): 4.67 h | Dog Liver Microsomal Stability no NADPH, % remain 1 h ([5]; dog liver microsomes, no NADPH): 92.3% | Human plasma t90 (in vitro [6]; human plasma, 2 μg/mL, 37° C.): 542 min | half-life (in vitro [6]; human, plasma): 60 h | Rat plasma t90 (in vitro [6]; rat plasma, 2 μg/mL, 37° C.): 132 min | half-life (in vitro [6]; rat, plasma): 14.6 h | Mouse plasma t90 (Mouse plasma stability): 67.2 min | half-life (Mouse plasma stability; read-out: Mouse plasma Half life (t1/2)): 7.43 h | Dog plasma t90 (Dog plasma stability; dog plasma, 2 μg/mL, 37° C.): 243 min | half-life (Dog plasma stability; dog plasma, 2 μg/mL, 37° C., read-out: Dog plasma Half life (t1/2)): 26.8 h | Compound 111 PK AUCInf/D ([10]; oral 25 mg/kg Compound 111): 68.7 kg·ng·h/mL/mg | AUC(0-inf) ([10]; dog, plasma, IV 5 mg/kg Compound 111, read-out: Compound 111 PK AUCinf): 2790 ng·h/mL | AUC(0-t) [10, 11]: 2740 ng·h/mL | C0 ([10]; dog, plasma, IV 5 mg/kg Compound 111, read-out: Compound 111 PK C0): 1500 ng/mL | clearance ([10]; dog, plasma, IV 5 mg/kg Compound 111, read-out: Compound 111 PK CL): 31.7 mL/min/kg | MRT inf [10, 11]: 3.68 h | half-life [10, 11]: 3.54 h | AUC(0-inf) ([10]; dog, plasma, oral 25 mg/kg Compound 111, read-out: Compound 111 PK AUCInf): 1720 ng·h/mL | AUC(0-t) [10, 12]: 1570 ng·h/mL | Cmax ([10]; dog, plasma, oral 25 mg/kg Compound 111, read-out: Compound 111 PK Cmax): 177 ng/mL | MRT inf [10, 12]: 10.6 h | Tmax ([10]; dog, plasma, oral 25 mg/kg Compound 111, read-out: Compound 111 PK Tmax): 2.67 h | half-life [10, 12]: 7.15 h | bioavailability ([10]; dog, plasma, oral 25 mg/kg vs IV 5 mg/kg Compound 111, read-out: Compound 111 PK F (%)): 11.4% | Vd ([10]; dog, plasma, IV 5 mg/kg Compound 111, read-out: Compound 111 PK Vss): 6.71 L/kg | Vd ([10]; dog, plasma, IV 5 mg/kg Compound 111, read-out: Compound 111 PK Vz): 9.47 L/kg
